# Experimental data reported in patent US20070179295A1, “Triazolopyrimidines” (priority 2003, published 2007).
# Test: logP determination through HPLC (EEC directive 79/831 Annex V. A8, gradient method, acetonitrile/0.1% aqueous phosphoric acid)
# Assay type: physicochemical
# Conditions: HPLC
row,chromatographic logP,SMILES
1,0.47,"Oc1nc2nc(C3CC3)nn2c(O)c1-c1ncccc1C(F)(F)F [Example 124, 6-(3-trifluoromethyl-pyridin-2-yl)-2-cyclopropyl[1,2,4]triazolo[1,5-a]-pyrimidin-5,7-diol]"

# Same assay, conditions: Table 1, compounds of formula (I); HPLC gradient method, acetonitrile/0.1% aqueous phosphoric acid
row,SMILES,logP
1,CCC(C)Nc1c(-c2cc(Cl)sc2Cl)c(Cl)nc2nc(C3CC3)nn12 (stereo not shown) [Example 69],4.56
2,FC(F)(F)CNc1c(-c2ccsc2)c(Cl)nc2nc(C3CC3)nn12 [Example 60],2.87
3,CC(C)CC(C)Nc1c(-c2cc(Cl)sc2Cl)c(Cl)nc2nc(C3CC3)nn12 (stereo not shown) [Example 68],5.42
4,C=C(C)CN(CC)c1c(-c2ccsc2)c(Cl)nc2nc(C3CC3)nn12 [Example 57],4.13
5,CC(Nc1c(-c2ncccc2C(F)(F)F)c(Cl)nc2nc(C3CC3)nn12)C(C)(C)C (stereo not shown) [Example 5],3.75
6,CC(Nc1c(-c2ccncc2Cl)c(Cl)nc2nc(C3CC3)nn12)C(F)(F)F (stereo not shown) [Example 42],2.82
7,CC(C)Nc1c(-c2ccsc2)c(Cl)nc2nc(C3CC3)nn12 [Example 72],3.07
8,Clc1nc2nc(C3CC3)nn2c(N2CCOCC2)c1-c1ccsc1 [Example 73],2.51
9,CC(C)C(C)Nc1c(-c2ccsc2)c(Cl)nc2nc(C3CC3)nn12 (stereo not shown) [Example 52],3.81
10,CC(C)CC(C)Nc1c(-c2ccsc2)c(Cl)nc2nc(C3CC3)nn12 (stereo not shown) [Example 61],4.14
11,CC1CCN(c2c(-c3ccsc3)c(Cl)nc3nc(C4CC4)nn23)CC1 [Example 55],4.23
12,COCCNc1c(-c2cc(Cl)sc2Cl)c(Cl)nc2nc(C3CC3)nn12 [Example 76],3.55

# Second part, the compound after the results:
row,logP,SMILES
1,3.95,CC(C)c1nc2nc(Cl)c(-c3ncc(C(F)(F)F)cc3Cl)c(NC(C)C(F)(F)F)n2n1 (stereo not shown) [Example 111]
2,2.78,CC(C)c1nc2nc(Cl)c(-c3ncncc3F)c(NC(C)C(F)(F)F)n2n1 (stereo not shown) [Example 102]
3,2.79,CC(C)C(C)Nc1c(-c2ncncc2F)c(Cl)nc2nc(C3CC3)nn12 (stereo not shown) [Example 104]
4,3.02,CC(C)c1nc2nc(Cl)c(-c3ncncc3F)c(NC(C)C(C)C)n2n1 (stereo not shown) [Example 101]
5,3.47,CC(C)c1nc2nc(Cl)c(-c3ncncc3F)c(NC(C)C(C)(C)C)n2n1 (stereo not shown) [Example 100]

# Same assay, conditions: Table 2, precursors of formula (II)
row,logP,SMILES
1,2.91,O=[N+]([O-])c1cccc(-c2c(Cl)nc3nc(C4CC4)nn3c2Cl)n1 [Example 119]
